Experiment: xn = mol fraction of the nth substance listed

CCCCO + CO
101.33 kPa
Conditions	viscosity [mPa·s]
298.15 K, x2 = 0.1362	2.2
298.15 K, x2 = 0.2224	1.966
298.15 K, x2 = 0.302	1.768
298.15 K, x2 = 0.409	1.528
298.15 K, x2 = 0.5154	1.312
298.15 K, x2 = 0.6105	1.139
298.15 K, x2 = 0.693	0.999
298.15 K, x2 = 0.8012	0.833
298.15 K, x2 = 0.9004	0.69
303.15 K, x2 = 0.2846	1.602
303.15 K, x2 = 0.3614	1.45
303.15 K, x2 = 0.4291	1.311
303.15 K, x2 = 0.492	1.191
303.15 K, x2 = 0.6007	1.038
303.15 K, x2 = 0.6929	0.8879
303.15 K, x2 = 0.7719	0.7812
303.15 K, x2 = 0.8404	0.6887
303.15 K, x2 = 0.9003	0.6154

CCCCC(=O)O + CCCCCO
viscosity [mPa·s], 100 kPa
Conditions	x1 = 0.0805	x1 = 0.1593	x1 = 0.2392	x1 = 0.3508	x1 = 0.4406	x1 = 0.5609	x1 = 0.6497	x1 = 0.7392	x1 = 0.8517	x1 = 0.9395
293.15 K	3.93	3.83	3.71	3.54	3.38	3.15	2.98	2.79	2.56	2.37
303.15 K	2.98	2.92	2.85	2.74	2.63	2.48	2.36	2.24	2.08	1.96
313.15 K	2.29	2.25	2.21	2.14	2.07	1.97	1.9	1.82	1.71	1.63
323.15 K	1.79	1.76	1.73	1.68	1.64	1.58	1.54	1.49	1.43	1.38

NC(N)=S + c1ccncc1
298.15 K, 101 kPa
Conditions	viscosity [mPa·s]
x1 = 0.0572	1.251
x1 = 0.13	2.019
